US20140255361A1, “ESTROGEN-RECEPTOR BASED LIGAND SYSTEM FOR REGULATING PROTEIN STABILITY” (The Board of Trustees Of The Leland Stanford Junior …, priority 2013, published 2014)
Residue numbers refer to the chain shown, from its start. Where two headings read alike, the source gives them in different places.

Assays:
GFP-ERLID = GFP-ERLID (Homo sapiens, UniProt P03372)
HA-hUBC13-ERLID = HA-hUBC13-ERLID (Homo sapiens, UniProt P03372)
HA-Bax-ERLID = HA-Bax-ERLID (Homo sapiens, UniProt P03372)
HA-hRPA2-ERLID = HA-hRPA2-ERLID (Homo sapiens, UniProt P03372)
[1] = target: T1, four point mutant of the estrogen receptor ligand binding domain (L384M, M421G, G521R and Y437S) fused to GFP (Homo sapiens, UniProt P03372, G521R/L384M/M421G/Y537S); conditions: cross-hatched bars, FIG. 7A
T1 sequence (P03372 with tags, fused parts or gaps L384M/M421G/G521R/Y537S): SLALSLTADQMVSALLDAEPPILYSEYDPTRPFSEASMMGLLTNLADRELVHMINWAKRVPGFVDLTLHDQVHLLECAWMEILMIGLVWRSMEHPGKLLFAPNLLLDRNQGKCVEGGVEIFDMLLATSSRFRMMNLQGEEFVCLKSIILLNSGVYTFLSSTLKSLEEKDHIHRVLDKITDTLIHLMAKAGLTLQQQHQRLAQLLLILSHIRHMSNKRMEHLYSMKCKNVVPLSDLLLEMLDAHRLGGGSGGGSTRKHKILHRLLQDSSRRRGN

GFP-ERLID fusion protein = target: T2, GFP-ERLID fusion protein (Homo sapiens, UniProt P03372)
T2 sequence (P03372 with tags, fused parts or gaps): T1 sequence (P03372 with tags, fused parts or gaps L384M/M421G/G521R/Y537S) with M80L, G117M, R217G, S233Y

wild-type ER LBDs = conditions: cited from earlier work
[2] = target: T3, estrogen receptor ligand binding domain mutants (four and six mutations) (Homo sapiens, UniProt P03372, G521R/L384M/M421G/N519S/T371A/Y537S); assay: Drug-dependent stability of ERLBD mutant clones with YFP or GFP reporter; assay type: cell-based; conditions: relative to the parent ESR1 sequence
T3 construct: residues 305-549 of estrogen receptor-1, ERS1; YFP or GFP reporter
T3 sequence (P03372 305-549 T371A/L384M/M421G/N519S/G521R/Y537S): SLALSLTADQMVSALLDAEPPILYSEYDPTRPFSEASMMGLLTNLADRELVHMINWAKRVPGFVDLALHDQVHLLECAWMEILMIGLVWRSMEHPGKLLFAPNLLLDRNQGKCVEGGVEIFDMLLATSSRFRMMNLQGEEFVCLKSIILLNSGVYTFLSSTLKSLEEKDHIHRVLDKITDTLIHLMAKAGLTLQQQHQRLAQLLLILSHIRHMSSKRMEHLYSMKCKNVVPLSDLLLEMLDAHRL

[3] = tested on: YFP-FKBP12 LID domain fusion protein; assay: FACS screen of YFP fused to extended FKBP12 (LID domain) in NIH3T3 cells; assay type: cell-based, mouse
Source text: Human […] protein was modified to include a 19-residue peptide extension at the C-terminus of the FKBP12 protein. Genetic diversity was engineered into this C-terminal extension using synthetic oligonucleotides and PCR, and this library of extended FKBP genes was fused to the 3′-end of the YFP gene. A library of plasmids was stably introduced into NIH3T3 cells using retrovirus, and FACS was used to screen the transduced cells for cells expressing YFP in the absence of the small molecule ligand Shield-1. […] This domain is identified herein by SEQ ID NO: 1.

GFP-LID = assay: Stability of GFP-LID fusion protein by flow cytometry (MFI) in NIH3T3 cells; assay type: cell-based; conditions: 1 μM Shield-1, 24 hours, FIG. 2
Source text: (§1) In studies conducted in support of the invention, and with reference to the Materials and Methods set forth in the Examples section below, the stabilities of two LID domain fusion proteins, a first generation construct based on the FKBP protein, here called “GFP-LID” and a next-generation construct having improved characteristics, here called “GFP-LID #15” were compared. […] For this study, NIH3T3 fibroblast cells were infected with retrovirus expressing GFP-LID or GFP-LID #15. Transduced NIH3T3 cells were treated with or without 1 μM Shield-1 for 24 hours. The fluorescence intensities of these GFP fusions were analyzed by flow cytometry. The median fluorescence intensity (MFI) was used to determine the stability of the GFP fusion proteins.
(§2) The INX ecotropic packaging cell line was transfected using standard Lipofectamine 2000 protocols. Viral supernatants were harvested 48 h post-transfection, filtered. NIH3T3 cells were incubated with the retroviral supernatants supplemented with 4 μg/ml polybrene for 4 h at 37° C. Cells were washed once with PBS and cultured in growth media for 48 hrs to allow for viral integration, then assayed as described.
(§3) Twenty-four hours prior to analysis, transduced NIH3T3 cells were plated at 1×10^5 cells per well of a 12-well plate. […] Cells were analyzed at the Stanford Shared FACS Facility using Vantoo or LSRII with 10,000 events represented.

GFP-LID #15 = assay: Stability of GFP-LID #15 fusion protein by flow cytometry (MFI) in NIH3T3 cells; assay type: cell-based; conditions: 1 μM Shield-1, 24 hours, FIG. 2
Source text: as §1, §2, §3

[4] = SEQ ID NO: 3 fused to GFP, open bars, FIG. 7A

Chain of HA-hUBC13-ERLID (P03372 with tags, fused parts or gaps): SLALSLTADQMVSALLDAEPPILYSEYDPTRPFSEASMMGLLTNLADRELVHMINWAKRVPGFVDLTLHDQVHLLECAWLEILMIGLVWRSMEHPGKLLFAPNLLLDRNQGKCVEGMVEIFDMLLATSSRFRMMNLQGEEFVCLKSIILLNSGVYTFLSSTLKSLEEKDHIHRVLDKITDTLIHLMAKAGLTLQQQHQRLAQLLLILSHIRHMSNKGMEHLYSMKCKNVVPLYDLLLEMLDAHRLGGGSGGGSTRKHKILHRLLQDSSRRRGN

4-hydroxytamoxifen [4-OHT]
level of fusion protein by Western blot (GFP-ERLID): destabilized | level of fusion protein by Western blot (HA-hUBC13-ERLID): destabilized | level of fusion protein by Western blot (HA-Bax-ERLID): destabilized | level of fusion protein by Western blot (HA-hRPA2-ERLID): destabilized | stability of mutant fusion protein (MFI) [1]: destabilization | stability of GFP-ERLBD (MFI) as a function of amount of ligand (GFP-ERLID fusion protein): dose dependent destabilization | stability of GFP-ERLID fusion protein (MFI) (GFP-ERLID fusion protein): induces degradation | stability of fusion protein (MFI) after E2 washout with 4-hydroxytamoxifen in the wash solution (E2 wo+4OHT) (GFP-ERLID fusion protein): destabilizes | stability of fusion protein (MFI) after ligand exposure (GFP-ERLID fusion protein): destabilizes | stability of wild type GFP-ERLID fusion protein (MFI) (GFP-ERLID fusion protein): destabilization

O=C1CCC2(Cc3ccc(Cl)cc3)Cc3cc(O)ccc3C2=C1c1ccc(OCCN2CCCCC2)cc1 (stereo not shown) [CMP8, 9a-(4-Chlorobenzyl)-7-hydroxy-4-[4-(2-piperidin-1-ylethoxy)phenyl]-1,2,9,9a-tetrahydro-3H-fluoren-3-one]
binding to wild-type ER LBDs (wild-type ER LBDs): does not bind well | dynamic range of stability in the presence of ligand [2]: large dynamic | stability of mutant fusion protein (MFI) [1]: destabilization | stability of wild type GFP-ERLID fusion protein (MFI) (GFP-ERLID fusion protein; [4]): destabilization

CC[C@H](C(=O)N1CCCC[C@H]1C(=O)O[C@H](CCc1ccc(OC)c(OC)c1)c1cccc(OCCN2CCOCC2)c1)c1cc(OC)c(OC)c(OC)c1 [Shield-1]
YFP levels on addition of ligand [3]: dropped significantly | stability of GFP fusion protein (median fluorescence intensity) (GFP-LID): destabilized | stability of GFP fusion protein (median fluorescence intensity) (GFP-LID #15): destabilized

C[C@]12CC[C@@H]3c4ccc(O)cc4C[C@@H](CCCCCCCCC[S+]([O-])CCCC(F)(F)C(F)(F)F)[C@H]3[C@@H]1CC[C@@H]2O (stereo partly shown) [fulvestrant]
stability of GFP-ERLID fusion protein (GFP-ERLID fusion protein; 10 μM fulvestrant, NIH3T3 cells, FIG. 4): induced degradation | stability of wild type GFP-ERLID fusion protein (MFI) (GFP-ERLID fusion protein; [4]): destabilization
